Data reported in ChEMBL document CHEMBL1201862, “PubChem BioAssay data set” (2004).
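Growth conditions: 96-well plates. Treatment: test compound, 48 hours, 5 concentrations. Analysis: linear interpolation between bracketing concentrations; unreached endpoints set to highest concentration. At the GI50, growth is halved.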 Active and inactive are the calls of the source. Cut-off read from the data, not from the text of the source: active = GI50 up to about 1.1 µM and inactive = higher.

How the values were obtained:
Assay in all cases: NCI tumour cell line growth inhibition, 48 h
[1] = test system: EKVX
[2] = test system: CCRF-CEM
[3] = test system: SK-MEL-5
[4] = test system: SNB-78
[5] = test system: COLO 205
[6] = test system: OVCAR-3
[7] = test system: HCT-15
[8] = test system: SF-539
[9] = test system: SNB-19
[10] = test system: SF-268
[11] = test system: A549
[12] = test system: UACC-62
[13] = test system: UACC-257
[14] = test system: CAKI-1
[15] = test system: OVCAR-4
[16] = test system: SK-OV-3
[17] = test system: SN12C

CCC1(N=[N+]=[N-])C(=O)Nc2cc(C)ccc2C1=O (stereo not drawn)
GI50 [1]: 42.7 µM (inactive)
GI50 [2]: 34.3 µM (inactive)
GI50 [3]: 51.8 µM (inactive)
GI50 [4]: 86.1 µM (inactive)
GI50 [5]: 69.3 µM (inactive)
GI50 [6]: 45.6 µM (inactive)
GI50 [7]: 72.1 µM
GI50 [8]: > 100 µM (inactive)
GI50 [9]: > 100 µM (inactive)
GI50 [10]: > 100 µM (inactive)
GI50 [11]: > 100 µM (inactive)
GI50 [12]: 62.2 µM (inactive)
GI50 [13]: 96.4 µM (inactive)
GI50 [14]: 36.9 µM (inactive)
GI50 [15]: > 100 µM (inactive)
GI50 [16]: > 100 µM (inactive)
GI50 [17]: 48.6 µM (inactive)

CN(C)c1ccc(/C=C(\NC(=O)c2ccccc2)c2nc3cncnc3[nH]2)cc1
GI50 [1]: > 100 µM (inactive)
GI50 [2]: > 100 µM (inactive)
GI50 [3]: > 100 µM (inactive)
GI50 [4]: > 100 µM (inactive)
GI50 [5]: > 100 µM (inactive)
GI50 [6]: > 100 µM (inactive)
GI50 [7]: > 100 µM
GI50 [8]: > 100 µM (inactive)
GI50 [9]: > 100 µM (inactive)
GI50 [10]: > 100 µM (inactive)
GI50 [11]: > 100 µM (inactive)
GI50 [12]: > 100 µM (inactive)
GI50 [14]: > 100 µM (inactive)
GI50 [15]: > 100 µM (inactive)
GI50 [16]: > 100 µM (inactive)
GI50 [17]: > 100 µM (inactive)

Cn1cc2ccccc2c1-c1nc(N)nc(F)n1
GI50 [1]: 64.4 µM (inactive)
GI50 [2]: > 100 µM (inactive)
GI50 [3]: > 100 µM (inactive)
GI50 [4]: > 100 µM (inactive)
GI50 [5]: > 100 µM (inactive)
GI50 [6]: > 100 µM (inactive)
GI50 [7]: > 100 µM
GI50 [8]: > 100 µM (inactive)
GI50 [9]: > 100 µM (inactive)
GI50 [10]: > 100 µM (inactive)
GI50 [11]: > 100 µM (inactive)
GI50 [13]: > 100 µM (inactive)
GI50 [14]: > 100 µM (inactive)
GI50 [15]: > 100 µM (inactive)
GI50 [16]: > 100 µM (inactive)
GI50 [17]: > 100 µM (inactive)

COc1cccc2c1[C@]1(O)C(O)CCCC21 (stereo partly drawn)
GI50 [1]: > 10 µM (inactive)
GI50 [2]: > 100 µM (inactive)
GI50 [3]: > 100 µM (inactive)
GI50 [4]: > 100 µM (inactive)
GI50 [5]: > 100 µM (inactive)
GI50 [6]: > 100 µM (inactive)
GI50 [7]: > 100 µM
GI50 [8]: > 100 µM (inactive)
GI50 [9]: > 100 µM (inactive)
GI50 [10]: > 100 µM (inactive)
GI50 [11]: > 100 µM (inactive)
GI50 [12]: > 100 µM (inactive)
GI50 [13]: > 100 µM (inactive)
GI50 [14]: > 100 µM (inactive)
GI50 [15]: > 100 µM (inactive)
GI50 [16]: > 100 µM (inactive)
GI50 [17]: > 100 µM (inactive)

O=C(CCc1nnc2s/c(=C\c3ccc4c(c3)OCO4)c(=O)n12)Nc1cc(Cl)ccc1Cl
GI50 [1]: > 100 µM (inactive)
GI50 [2]: > 100 µM (inactive)
GI50 [3]: > 100 µM (inactive)
GI50 [4]: > 100 µM (inactive)
GI50 [5]: > 74.1 µM (inactive)
GI50 [6]: > 100 µM (inactive)
GI50 [7]: > 39.8 µM
GI50 [8]: > 100 µM (inactive)
GI50 [9]: > 100 µM (inactive)
GI50 [10]: > 100 µM (inactive)
GI50 [11]: > 100 µM (inactive)
GI50 [12]: > 100 µM (inactive)
GI50 [13]: > 100 µM (inactive)
GI50 [14]: > 100 µM (inactive)
GI50 [15]: > 100 µM (inactive)
GI50 [16]: > 100 µM (inactive)
GI50 [17]: > 100 µM (inactive)

COc1c(CC(=O)c2ccccc2)c2ccccc2n1C(C)=O
GI50 [1]: 35.6 µM (inactive)
GI50 [2]: > 100 µM (inactive)
GI50 [4]: > 100 µM (inactive)
GI50 [5]: > 100 µM (inactive)
GI50 [6]: > 100 µM (inactive)
GI50 [7]: > 100 µM
GI50 [8]: > 100 µM (inactive)
GI50 [9]: > 100 µM (inactive)
GI50 [11]: > 100 µM (inactive)
GI50 [12]: > 100 µM (inactive)
GI50 [13]: > 100 µM (inactive)
GI50 [14]: > 100 µM (inactive)
GI50 [15]: > 100 µM (inactive)
GI50 [16]: > 100 µM (inactive)
GI50 [17]: > 100 µM (inactive)

CCOc1ccc(NC(=O)C(=O)C(C(=O)c2ccc3ccccc3c2)C2OC(=O)c3ccccc32)cc1 (stereo not drawn)
GI50 [1]: > 100 µM (inactive)
GI50 [2]: 7.08 µM (inactive)
GI50 [3]: 14.2 µM (inactive)
GI50 [4]: 4.91 µM (inactive)
GI50 [5]: 19.1 µM (inactive)
GI50 [6]: 16.2 µM (inactive)
GI50 [7]: 13.7 µM
GI50 [8]: 7.31 µM (inactive)
GI50 [9]: 9.62 µM (inactive)
GI50 [10]: 13.3 µM (inactive)
GI50 [11]: 20.2 µM (inactive)
GI50 [12]: 13.7 µM (inactive)
GI50 [13]: 17 µM (inactive)
GI50 [14]: 23.8 µM (inactive)
GI50 [15]: 12.5 µM (inactive)
GI50 [16]: 50.9 µM (inactive)
GI50 [17]: 17.2 µM (inactive)

CC/C(=N/O)C(C)C(=O)CCC(=O)Nc1ccc(Cl)cc1 (stereo not drawn)
GI50 [1]: > 100 µM (inactive)
GI50 [2]: > 100 µM (inactive)
GI50 [3]: > 100 µM (inactive)
GI50 [4]: > 100 µM (inactive)
GI50 [5]: > 100 µM (inactive)
GI50 [6]: > 100 µM (inactive)
GI50 [7]: 26.9 µM
GI50 [8]: > 100 µM (inactive)
GI50 [9]: > 100 µM (inactive)
GI50 [10]: > 100 µM (inactive)
GI50 [11]: > 100 µM (inactive)
GI50 [12]: 28.2 µM (inactive)
GI50 [13]: > 100 µM (inactive)
GI50 [14]: > 100 µM (inactive)
GI50 [15]: > 100 µM (inactive)
GI50 [16]: > 100 µM (inactive)
GI50 [17]: > 100 µM (inactive)

CNC(=O)NCCCCC(NC(=O)OCc1ccccc1)C(=O)OCc1ccccc1 (stereo not drawn)
GI50 [1]: 98.9 µM (inactive)
GI50 [2]: 17.9 µM (inactive)
GI50 [3]: 48.6 µM (inactive)
GI50 [4]: 25.4 µM (inactive)
GI50 [5]: 17.7 µM (inactive)
GI50 [6]: 16.1 µM (inactive)
GI50 [7]: > 100 µM
GI50 [8]: 19 µM (inactive)
GI50 [9]: > 100 µM (inactive)
GI50 [11]: 31.6 µM (inactive)
GI50 [12]: 21.5 µM (inactive)
GI50 [13]: 18.6 µM (inactive)
GI50 [14]: 23.7 µM (inactive)
GI50 [15]: 22.3 µM (inactive)
GI50 [16]: > 100 µM (inactive)
GI50 [17]: 24.2 µM (inactive)

COc1ccc2nc(NC(=O)C(=O)C(C#N)c3ccc(CC#N)cc3)sc2c1 (stereo not drawn)
GI50 [1]: 33.5 µM (inactive)
GI50 [2]: > 100 µM (inactive)
GI50 [3]: > 100 µM (inactive)
GI50 [4]: > 100 µM (inactive)
GI50 [5]: > 100 µM (inactive)
GI50 [6]: > 100 µM (inactive)
GI50 [7]: > 100 µM
GI50 [8]: > 100 µM (inactive)
GI50 [9]: 53 µM (inactive)
GI50 [10]: > 100 µM (inactive)
GI50 [11]: > 100 µM (inactive)
GI50 [12]: 92.9 µM (inactive)
GI50 [13]: > 100 µM (inactive)
GI50 [14]: > 100 µM (inactive)
GI50 [15]: > 100 µM (inactive)
GI50 [16]: > 100 µM (inactive)
GI50 [17]: > 100 µM (inactive)

CS(=O)(=O)OCCN(CCOS(C)(=O)=O)c1ccc(/C=N/N=c2/nc[nH]c3nc[nH]c23)cc1
GI50 [1]: 33.2 µM (inactive)
GI50 [2]: 8.09 µM (inactive)
GI50 [3]: 15.9 µM (inactive)
GI50 [4]: 24.2 µM (inactive)
GI50 [5]: 17.2 µM (inactive)
GI50 [6]: 13.4 µM (inactive)
GI50 [7]: 31 µM
GI50 [8]: 18.3 µM (inactive)
GI50 [9]: 27.6 µM (inactive)
GI50 [10]: 12.9 µM (inactive)
GI50 [11]: 26.2 µM (inactive)
GI50 [12]: 12.9 µM (inactive)
GI50 [13]: 19.8 µM (inactive)
GI50 [14]: 14.2 µM (inactive)
GI50 [15]: 22.7 µM (inactive)
GI50 [16]: 26.2 µM (inactive)
GI50 [17]: 35.2 µM (inactive)

CN1N=CSC12C(=O)N(c1ccc(Cl)cc1)C(=O)N2c1ccc(Cl)cc1 (stereo not drawn)
GI50 [1]: 7.14 µM (inactive)
GI50 [2]: 3.37 µM (inactive)
GI50 [3]: 3.55 µM (inactive)
GI50 [4]: 3.98 µM (inactive)
GI50 [5]: 1.93 µM (inactive)
GI50 [6]: 1.43 µM (inactive)
GI50 [8]: 5.82 µM (inactive)
GI50 [9]: 3.82 µM (inactive)
GI50 [10]: 5.41 µM (inactive)
GI50 [11]: 3.46 µM (inactive)
GI50 [12]: 3.36 µM (inactive)
GI50 [13]: 3.15 µM (inactive)
GI50 [14]: 3.92 µM (inactive)
GI50 [15]: 5.24 µM (inactive)
GI50 [16]: 3.95 µM (inactive)
GI50 [17]: 3.44 µM (inactive)
